# Test results published in patent publication US20220169598A1, “HALOGENATED PHENYLSULFONAMIDE HYDROXAMIC ACID COMPOUNDS, COMPOSITIONS AND USES THEREOF AS SELECTIVE HDAC6 INHIBITORS” (2681603 ONTARIO INC., priority 2019, published 2022).
# Key:
# HDAC4 = HDAC4 (Homo sapiens, UniProt P56524); experiment: in vitro activity-based HDAC assay; type: biochemical; settings: human HDAC isoform panel, Table 1
# Procedure: (§1) The exemplary compounds of Formula I and structurally related compounds were synthesized to assess their structure-activity relationship. […] The IC50 values for each exemplary compound were used to calculate the selectivity of the exemplary compounds for Formula I to HDAC6. The selectivity of each exemplary compound for HDAC6 was determined from examining the potency of HDAC6 in relation to the highest binding affinity of the other HDAC isoforms tested.
# HDAC2 = HDAC2 (Homo sapiens, UniProt Q92769); experiment: in vitro activity-based HDAC assay; type: biochemical; settings: human HDAC isoform panel, Table 1
# HDAC2, sequence (Q92769 whole entry, canonical isoform): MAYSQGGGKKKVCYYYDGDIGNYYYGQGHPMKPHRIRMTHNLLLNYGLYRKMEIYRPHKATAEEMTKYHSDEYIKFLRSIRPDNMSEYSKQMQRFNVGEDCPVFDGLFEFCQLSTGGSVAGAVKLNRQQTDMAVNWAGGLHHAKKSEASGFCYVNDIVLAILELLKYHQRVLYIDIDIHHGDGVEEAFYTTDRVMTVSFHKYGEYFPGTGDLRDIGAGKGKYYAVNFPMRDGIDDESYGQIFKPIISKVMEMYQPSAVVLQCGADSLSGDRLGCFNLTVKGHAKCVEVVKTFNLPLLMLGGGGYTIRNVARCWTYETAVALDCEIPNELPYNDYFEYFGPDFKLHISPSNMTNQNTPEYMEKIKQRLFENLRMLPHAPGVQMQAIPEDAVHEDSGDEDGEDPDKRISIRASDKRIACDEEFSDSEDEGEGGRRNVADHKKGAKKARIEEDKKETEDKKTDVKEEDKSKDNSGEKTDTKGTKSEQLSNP
# Procedure: as §1
# HDAC7 = target: T1, HDAC7 (Homo sapiens, UniProt Q8WUI4); experiment: in vitro activity-based HDAC assay; type: biochemical; settings: human HDAC isoform panel, Table 1
# T1 sequence (Q8WUI4 1-952): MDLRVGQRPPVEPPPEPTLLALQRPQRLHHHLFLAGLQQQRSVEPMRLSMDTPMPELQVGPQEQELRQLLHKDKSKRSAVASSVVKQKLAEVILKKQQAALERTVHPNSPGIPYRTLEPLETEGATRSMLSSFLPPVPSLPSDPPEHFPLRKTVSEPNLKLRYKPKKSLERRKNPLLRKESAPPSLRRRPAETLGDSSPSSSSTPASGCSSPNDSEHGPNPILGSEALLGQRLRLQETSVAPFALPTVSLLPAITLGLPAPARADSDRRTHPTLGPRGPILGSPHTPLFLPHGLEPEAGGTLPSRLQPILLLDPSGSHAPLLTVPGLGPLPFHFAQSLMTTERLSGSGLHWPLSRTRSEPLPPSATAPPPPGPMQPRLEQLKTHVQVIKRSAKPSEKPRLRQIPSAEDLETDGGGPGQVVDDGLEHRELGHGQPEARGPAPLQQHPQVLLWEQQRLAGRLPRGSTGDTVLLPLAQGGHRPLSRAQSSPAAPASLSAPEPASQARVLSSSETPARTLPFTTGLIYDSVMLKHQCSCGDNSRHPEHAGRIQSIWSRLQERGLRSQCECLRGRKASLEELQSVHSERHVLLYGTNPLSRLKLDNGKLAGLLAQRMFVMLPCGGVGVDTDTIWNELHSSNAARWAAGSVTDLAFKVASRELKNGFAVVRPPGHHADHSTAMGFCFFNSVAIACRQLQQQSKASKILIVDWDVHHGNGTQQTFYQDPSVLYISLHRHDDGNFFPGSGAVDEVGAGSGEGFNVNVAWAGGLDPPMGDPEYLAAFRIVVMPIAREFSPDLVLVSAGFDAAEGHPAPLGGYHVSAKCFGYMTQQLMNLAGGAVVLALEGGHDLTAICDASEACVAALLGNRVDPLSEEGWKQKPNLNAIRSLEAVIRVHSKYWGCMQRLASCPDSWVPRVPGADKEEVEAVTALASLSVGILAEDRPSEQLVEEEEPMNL
# Procedure: as §1
# HDAC5 = HDAC5 (Homo sapiens, UniProt Q9UQL6); experiment: in vitro activity-based HDAC assay; type: biochemical; settings: human HDAC isoform panel, Table 1
# HDAC5, sequence (Q9UQL6 whole entry, canonical isoform): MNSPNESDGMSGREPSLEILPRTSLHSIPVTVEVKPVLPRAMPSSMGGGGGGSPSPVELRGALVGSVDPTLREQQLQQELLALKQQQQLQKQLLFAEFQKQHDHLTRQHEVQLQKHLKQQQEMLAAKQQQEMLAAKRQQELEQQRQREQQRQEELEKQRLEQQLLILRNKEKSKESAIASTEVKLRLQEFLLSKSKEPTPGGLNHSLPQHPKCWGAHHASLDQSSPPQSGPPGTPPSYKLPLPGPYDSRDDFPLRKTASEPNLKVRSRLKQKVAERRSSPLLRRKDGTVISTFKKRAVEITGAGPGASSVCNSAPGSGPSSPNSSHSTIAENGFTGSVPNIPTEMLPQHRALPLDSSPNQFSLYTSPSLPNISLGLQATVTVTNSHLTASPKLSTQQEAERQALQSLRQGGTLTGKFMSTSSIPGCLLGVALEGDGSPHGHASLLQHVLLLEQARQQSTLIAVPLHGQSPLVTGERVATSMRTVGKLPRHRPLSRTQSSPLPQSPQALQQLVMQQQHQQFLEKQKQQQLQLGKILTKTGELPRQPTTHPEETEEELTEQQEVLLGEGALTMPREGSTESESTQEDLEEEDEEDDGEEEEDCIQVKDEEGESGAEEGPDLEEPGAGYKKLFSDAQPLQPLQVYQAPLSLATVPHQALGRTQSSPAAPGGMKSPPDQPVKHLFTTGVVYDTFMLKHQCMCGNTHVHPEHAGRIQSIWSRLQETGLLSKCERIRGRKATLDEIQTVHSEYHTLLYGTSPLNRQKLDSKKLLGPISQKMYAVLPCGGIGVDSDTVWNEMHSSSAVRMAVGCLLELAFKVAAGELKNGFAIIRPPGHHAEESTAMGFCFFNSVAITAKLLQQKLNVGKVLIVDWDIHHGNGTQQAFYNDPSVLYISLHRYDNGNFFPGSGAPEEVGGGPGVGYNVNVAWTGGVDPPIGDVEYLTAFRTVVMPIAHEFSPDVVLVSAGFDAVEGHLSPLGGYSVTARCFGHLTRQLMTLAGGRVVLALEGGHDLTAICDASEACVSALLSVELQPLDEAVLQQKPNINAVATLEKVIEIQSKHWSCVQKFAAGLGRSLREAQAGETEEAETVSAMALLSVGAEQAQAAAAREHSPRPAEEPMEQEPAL
# Procedure: as §1
# HDAC10 = target: T2, HDAC10 (Homo sapiens, UniProt Q969S8); experiment: in vitro activity-based HDAC assay; type: biochemical; settings: human HDAC isoform panel, Table 1
# T2 sequence (Q969S8 1-669): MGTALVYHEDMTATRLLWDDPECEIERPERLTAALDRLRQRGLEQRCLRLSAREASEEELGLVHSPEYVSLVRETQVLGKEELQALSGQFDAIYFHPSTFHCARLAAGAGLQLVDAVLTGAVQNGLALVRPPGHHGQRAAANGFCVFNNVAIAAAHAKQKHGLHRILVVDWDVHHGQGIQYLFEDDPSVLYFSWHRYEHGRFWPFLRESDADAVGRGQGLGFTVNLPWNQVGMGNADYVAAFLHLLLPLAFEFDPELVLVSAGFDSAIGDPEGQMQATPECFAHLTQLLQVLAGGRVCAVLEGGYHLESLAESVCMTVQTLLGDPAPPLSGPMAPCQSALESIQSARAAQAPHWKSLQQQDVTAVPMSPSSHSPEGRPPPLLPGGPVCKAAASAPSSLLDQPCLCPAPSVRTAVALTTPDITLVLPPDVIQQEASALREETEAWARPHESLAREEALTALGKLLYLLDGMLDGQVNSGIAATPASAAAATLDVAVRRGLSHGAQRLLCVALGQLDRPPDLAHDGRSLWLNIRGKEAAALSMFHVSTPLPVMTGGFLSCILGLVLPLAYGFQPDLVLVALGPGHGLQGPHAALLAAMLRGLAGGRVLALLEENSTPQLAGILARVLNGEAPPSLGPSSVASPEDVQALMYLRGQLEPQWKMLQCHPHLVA
# Procedure: as §1
# HDAC1 = HDAC1 (Homo sapiens, UniProt Q13547); experiment: in vitro activity-based HDAC assay; type: biochemical; settings: human HDAC isoform panel, Table 1
# HDAC1, sequence (Q13547 whole entry, canonical isoform): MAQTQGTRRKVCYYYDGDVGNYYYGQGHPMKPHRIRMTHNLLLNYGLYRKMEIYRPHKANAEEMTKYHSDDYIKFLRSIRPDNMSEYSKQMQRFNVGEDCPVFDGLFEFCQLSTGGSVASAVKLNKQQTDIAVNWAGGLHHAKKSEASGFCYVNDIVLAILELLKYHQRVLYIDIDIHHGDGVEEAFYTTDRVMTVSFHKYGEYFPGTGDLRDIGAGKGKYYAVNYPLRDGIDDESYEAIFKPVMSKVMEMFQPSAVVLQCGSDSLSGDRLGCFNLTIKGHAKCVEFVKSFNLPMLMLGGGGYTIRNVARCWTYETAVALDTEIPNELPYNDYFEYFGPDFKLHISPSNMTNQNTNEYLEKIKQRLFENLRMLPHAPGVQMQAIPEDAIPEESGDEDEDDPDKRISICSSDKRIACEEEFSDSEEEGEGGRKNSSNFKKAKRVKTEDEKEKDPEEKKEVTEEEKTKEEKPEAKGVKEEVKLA
# Procedure: as §1
# HDAC9 = HDAC9 (Homo sapiens, UniProt Q9UKV0); experiment: in vitro activity-based HDAC assay; type: biochemical; settings: human HDAC isoform panel, Table 1
# HDAC9, sequence (Q9UKV0 whole entry, canonical isoform): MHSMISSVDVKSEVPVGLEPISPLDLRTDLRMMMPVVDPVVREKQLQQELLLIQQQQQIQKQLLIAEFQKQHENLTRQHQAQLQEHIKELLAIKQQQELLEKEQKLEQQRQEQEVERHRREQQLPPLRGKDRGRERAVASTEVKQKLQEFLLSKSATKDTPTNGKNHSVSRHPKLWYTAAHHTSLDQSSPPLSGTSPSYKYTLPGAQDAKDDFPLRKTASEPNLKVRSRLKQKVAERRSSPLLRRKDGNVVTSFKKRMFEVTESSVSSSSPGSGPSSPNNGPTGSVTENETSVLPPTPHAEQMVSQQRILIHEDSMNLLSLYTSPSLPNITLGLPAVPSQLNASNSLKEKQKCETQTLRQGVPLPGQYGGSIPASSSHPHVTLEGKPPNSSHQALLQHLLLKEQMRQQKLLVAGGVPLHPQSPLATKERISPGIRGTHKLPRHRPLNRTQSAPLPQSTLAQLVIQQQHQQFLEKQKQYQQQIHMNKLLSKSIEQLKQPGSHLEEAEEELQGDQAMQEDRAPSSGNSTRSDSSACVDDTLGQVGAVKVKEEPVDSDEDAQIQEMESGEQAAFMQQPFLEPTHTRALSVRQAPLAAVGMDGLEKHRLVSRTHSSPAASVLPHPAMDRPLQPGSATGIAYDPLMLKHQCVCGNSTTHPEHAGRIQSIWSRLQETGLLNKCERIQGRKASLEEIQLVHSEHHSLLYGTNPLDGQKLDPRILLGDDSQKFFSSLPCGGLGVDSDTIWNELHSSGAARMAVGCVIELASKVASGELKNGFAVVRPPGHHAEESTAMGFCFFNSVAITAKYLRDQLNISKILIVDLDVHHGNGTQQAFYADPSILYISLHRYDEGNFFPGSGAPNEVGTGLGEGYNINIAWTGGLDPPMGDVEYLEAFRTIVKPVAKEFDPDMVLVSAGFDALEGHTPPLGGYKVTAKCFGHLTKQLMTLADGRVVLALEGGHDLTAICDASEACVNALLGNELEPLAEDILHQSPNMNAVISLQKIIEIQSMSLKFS
# Procedure: as §1
# MV-4-11 = experiment: Cytotoxicity in cell lines; type: cell-based; settings: Homo sapiens, MV4-11, Table 4; read-out: IC50 MV-411
# Procedure: (§2) The cytotoxicity of exemplary compounds of the application was tested in multiple cell lines including MV-4-11, MOLM-13, MCF-7, MRC9, K562 and MM.1S. The therapeutic index was evaluated by determining the toxicity of the exemplary compounds in healthy cell lines including fibroblasts and HUVEC.
# MRC9 = experiment: Cytotoxicity in cell lines; type: cell-based; settings: Table 4
# Procedure: as §2
# MM.1S = experiment: Cytotoxicity in cell lines; type: cell-based; settings: Homo sapiens, MM1.S; Table 4
# Procedure: as §2
# MOLM-13 = experiment: Cytotoxicity in cell lines; type: cell-based; settings: Homo sapiens, MOLM-13; Table 4; read-out: IC50 MOLM-13
# Procedure: as §2
# MCF-7 = experiment: Cytotoxicity in cell lines; type: cell-based; settings: Homo sapiens, MCF7; Table 4
# Procedure: as §2
# HDAC4, sequence (P56524 whole entry, canonical isoform): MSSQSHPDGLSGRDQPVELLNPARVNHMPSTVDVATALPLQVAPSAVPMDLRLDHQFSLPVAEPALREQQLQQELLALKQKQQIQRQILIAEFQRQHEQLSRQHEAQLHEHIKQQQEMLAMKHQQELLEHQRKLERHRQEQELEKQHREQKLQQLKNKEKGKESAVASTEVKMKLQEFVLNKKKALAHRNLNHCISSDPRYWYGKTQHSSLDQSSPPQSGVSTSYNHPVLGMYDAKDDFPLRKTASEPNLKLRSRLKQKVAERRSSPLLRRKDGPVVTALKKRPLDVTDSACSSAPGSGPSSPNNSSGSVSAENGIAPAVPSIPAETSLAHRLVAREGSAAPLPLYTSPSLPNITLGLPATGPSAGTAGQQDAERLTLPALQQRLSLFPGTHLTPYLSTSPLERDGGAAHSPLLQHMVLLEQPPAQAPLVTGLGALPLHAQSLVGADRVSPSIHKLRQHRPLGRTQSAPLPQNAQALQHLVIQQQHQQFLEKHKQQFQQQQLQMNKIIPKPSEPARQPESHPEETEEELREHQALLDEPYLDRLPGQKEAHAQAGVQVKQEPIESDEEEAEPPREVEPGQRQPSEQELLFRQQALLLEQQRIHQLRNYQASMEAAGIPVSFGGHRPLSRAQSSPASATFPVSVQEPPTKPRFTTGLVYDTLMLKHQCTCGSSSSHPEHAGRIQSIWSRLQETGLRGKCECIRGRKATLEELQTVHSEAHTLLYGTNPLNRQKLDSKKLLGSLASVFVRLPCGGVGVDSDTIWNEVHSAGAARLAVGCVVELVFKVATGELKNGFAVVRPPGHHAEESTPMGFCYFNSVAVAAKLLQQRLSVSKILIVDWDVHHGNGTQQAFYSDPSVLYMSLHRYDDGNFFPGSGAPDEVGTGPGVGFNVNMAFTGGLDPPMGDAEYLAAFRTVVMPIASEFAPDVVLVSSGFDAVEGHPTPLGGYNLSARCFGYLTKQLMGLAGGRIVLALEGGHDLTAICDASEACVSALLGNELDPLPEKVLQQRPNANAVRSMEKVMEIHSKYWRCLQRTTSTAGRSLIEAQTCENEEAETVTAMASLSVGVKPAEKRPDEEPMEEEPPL
SMILES,IC50 (HDAC4),IC50 (HDAC2),IC50 (HDAC7),IC50 (HDAC5),IC50 (HDAC10),IC50 (HDAC1),IC50 (HDAC9),IC50 (MV-4-11),IC50 (MRC9),IC50 (MM.1S),IC50 (MOLM-13),IC50 (MCF-7)
"CC(C)N(Cc1ccc(C(=O)NO)cc1F)S(=O)(=O)c1cc(F)c(F)c(F)c1F [Compound I-50, 3-fluoro-N-hydroxy-4-(((2,3,4,5-tetrafluoro-N-isopropylphenyl)sulfonamido)methyl)benzamide]",> 1 µM,> 1 µM,> 1 µM,> 1 µM,> 1 µM,> 1 µM,> 1 µM,1.6 µM,> 50 µM,1.2 µM,,
"O=C(NO)c1ccc(CN(Cc2cccnc2)S(=O)(=O)c2cc(F)c(F)c(F)c2F)c(C(F)(F)F)c1 [Compound I-31, N-hydroxy-4-((2,3,4,5-tetrafluoro-N-(pyridin-3-ylmethyl)phenylsulfonamido)methyl)-3-(trifluoromethyl)benzamide]",,,,,,,,3.4 µM,,,1.6 µM,5 µM
